According to US7618983B2, “Bicyclic triazole α4 integrin inhibitors” (Janssen Pharmaceutica, N.V., priority 2004, dated 2009):

Target: α4β1 (Homo sapiens, UniProt P05556+P13612)
Experiment: Ramos Cell Adhesion Assay (α4β1 Mediated Adhesion/VCAM-1)
Type: cell-based
Design: Ramos Cell Adhesion Assay (α4β1 Mediated Adhesion/VCAM-1); endogenous in cells; host or cells: Ramos cells
Conditions: Ramos cells adhering to recombinant hVCAM-1; read-out: α4β1 IC50
Method: Ramos Cell Adhesion Assay (α4β1 Mediated Adhesion/VCAM-1)
Immulon 96 well plates (Dynex) were coated with 100 μL recombinant hVCAM-1 at 4.0 μg/mL in 0.05 M NaCO3 buffer pH 9.0 overnight at 4° C. (R&D Systems). Plates were washed 3 times in PBS with 1% BSA and blocked for 1 h @ room temperature in this buffer. PBS was removed and compounds to be tested (50 μL) were added at 2× concentration. Ramos cells, (50 μL at 2×10^6/mL) labeled with 5 μM Calcein AM (Molecular Probes) for 1 h at 37° C., were added to each well and allowed to adhere for 1 h at room temperature. Plates were washed 3× in PBS+1% BSA and cells were lysed for 15 minutes in 100 μL of 1 M Tris pH 8.0 with 1% SDS. The plate was read at 485 nm excitation and 530 nm emission.

Sequence of α4β1 (P13612 34-1032): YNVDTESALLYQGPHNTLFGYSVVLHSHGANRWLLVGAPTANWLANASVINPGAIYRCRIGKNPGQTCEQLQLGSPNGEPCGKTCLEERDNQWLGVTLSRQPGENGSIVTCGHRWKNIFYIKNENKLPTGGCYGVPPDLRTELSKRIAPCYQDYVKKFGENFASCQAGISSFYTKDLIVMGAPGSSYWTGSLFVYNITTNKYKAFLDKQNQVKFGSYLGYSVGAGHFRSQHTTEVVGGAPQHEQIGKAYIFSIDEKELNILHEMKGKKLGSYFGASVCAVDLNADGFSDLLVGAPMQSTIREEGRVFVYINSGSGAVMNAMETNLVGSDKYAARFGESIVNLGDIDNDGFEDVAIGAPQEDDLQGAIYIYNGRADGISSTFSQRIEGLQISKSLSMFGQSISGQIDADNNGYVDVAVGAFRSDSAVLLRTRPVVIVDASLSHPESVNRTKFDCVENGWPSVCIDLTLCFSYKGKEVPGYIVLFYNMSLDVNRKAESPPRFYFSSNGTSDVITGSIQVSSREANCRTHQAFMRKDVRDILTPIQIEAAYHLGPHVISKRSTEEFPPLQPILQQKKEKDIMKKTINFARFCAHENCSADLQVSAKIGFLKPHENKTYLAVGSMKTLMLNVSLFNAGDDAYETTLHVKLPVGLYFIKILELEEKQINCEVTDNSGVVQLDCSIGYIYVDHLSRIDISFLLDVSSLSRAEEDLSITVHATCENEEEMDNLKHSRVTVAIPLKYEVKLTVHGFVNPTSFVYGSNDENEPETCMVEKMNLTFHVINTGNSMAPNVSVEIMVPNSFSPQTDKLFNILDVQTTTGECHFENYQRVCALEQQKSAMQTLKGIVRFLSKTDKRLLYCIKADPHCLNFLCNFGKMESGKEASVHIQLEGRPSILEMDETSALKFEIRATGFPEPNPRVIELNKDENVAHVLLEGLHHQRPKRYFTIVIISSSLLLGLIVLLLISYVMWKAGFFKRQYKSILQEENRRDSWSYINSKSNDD
Sequence of α4β1 (P05556 21-798): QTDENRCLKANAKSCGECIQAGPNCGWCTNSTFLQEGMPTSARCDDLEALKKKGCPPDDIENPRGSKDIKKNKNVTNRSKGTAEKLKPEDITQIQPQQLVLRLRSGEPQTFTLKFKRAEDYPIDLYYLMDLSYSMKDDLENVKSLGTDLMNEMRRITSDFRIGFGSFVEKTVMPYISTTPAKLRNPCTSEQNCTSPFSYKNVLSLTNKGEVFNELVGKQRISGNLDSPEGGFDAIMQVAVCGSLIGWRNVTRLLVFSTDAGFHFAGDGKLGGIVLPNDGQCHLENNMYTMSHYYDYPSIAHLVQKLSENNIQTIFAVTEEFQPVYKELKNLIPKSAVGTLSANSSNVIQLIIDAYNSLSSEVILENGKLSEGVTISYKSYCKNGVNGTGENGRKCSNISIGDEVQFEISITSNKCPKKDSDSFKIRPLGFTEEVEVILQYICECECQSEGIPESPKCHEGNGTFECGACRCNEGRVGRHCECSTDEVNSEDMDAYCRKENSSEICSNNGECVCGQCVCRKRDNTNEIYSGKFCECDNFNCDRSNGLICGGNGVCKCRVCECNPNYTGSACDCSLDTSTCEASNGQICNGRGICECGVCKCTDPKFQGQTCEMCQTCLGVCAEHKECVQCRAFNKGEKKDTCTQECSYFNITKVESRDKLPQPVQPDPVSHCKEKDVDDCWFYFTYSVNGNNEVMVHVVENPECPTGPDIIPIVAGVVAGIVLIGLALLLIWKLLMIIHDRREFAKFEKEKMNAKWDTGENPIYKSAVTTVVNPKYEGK

NCc1nnc2n1[C@H](C(=O)N[C@@H](Cc1ccc(NC(=O)c3c(Cl)cccc3Cl)cc1)C(=O)O)CC2 [Cpd 14, 2-(S)-[(3-Aminomethyl-6,7-dihydro-5H-pyrrolo[2,1-c][1,2,4]triazole-5-(S)-carbonyl)-amino]-3-[4-(2,6-dichloro-benzoylamino)-phenyl]-propionic acid]
IC50: > 5 µM
